# Tests used:
# [1] = test system: cumulative cisplatin nephrotoxicity; assay: Multiple low dose cisplatin nephrotoxicity model; format: in vivo; settings: rats
# [2] = Effect of route of administration on biodistribution of radiolabelled NAC; format: in vivo; settings: rats
# Experimental: Radiolabelled NAC in combination with unlabeled NAC (140 mg/kg) was administered to rats with the following routes of infusion: IV; IA into the right carotid artery for brain infusion; aortic infusion (IA infusion via the left external carotid artery with left internal artery occlusion) to avoid brain infusion; and IA (right carotid) with osmotic Blood Brain Barrier Disruption (BBBD) to maximize delivery to the brain.
# cisplatin nephrotoxicity = assay: Cisplatin nephrotoxicity after NAC IV, PO or IA in the descending aorta; format: in vivo; settings: rats
# Experimental: IV NAC was nephroprotective at a dose of 400 mg/kg but not at a lower dose of 50 mg/kg.
# [3] = test system: cellular apoptosis proteins; assay: NAC-mediated inhibition of cisplatin-induced apoptosis, Western Blot analysis; format: cell-based
# Experimental: Thus, the ability of NAC to modulate cellular apoptosis proteins was evaluated by Western Blot analysis.
# [4] = test system: cisplatin-induced nephrotoxicity; assay: Cisplatin (10 mg/kg IP) nephrotoxicity model, BUN, creatinine and weight 3 days after treatment; format: in vivo; settings: rats
# Experimental: There are few animal models of contrast-induced nephropathy, and the reported models are not easily reproducible.
# Rats were tested for renal toxicity 3 days after treatment by measuring serum concentrations of BUN and creatinine (CR).
# [5] = Blood/serum levels of NAC and thiols by HPLC after IV or PO NAC; format: in vivo
# Experimental: NAC is known to enhance de novo glutathione synthesis, and may also impact levels of other thiols. […] In contrast to the IV results, the group given NAC 1200 mg/kg by the PO route had very low levels of serum NAC (0.12±0.12) at 15 min or 60 min after infusion.
# [6] = Clearance of NAC, blood thiol concentration every 15 minutes by colorimetric kit; format: in vivo; settings: rat, intravenous, other: IA into the descending aorta, IV or IA into the descending aorta, 140, 400, 1000 and 1200 mg/kg, all doses
# Experimental: NAC was administered either IV or IA into the descending aorta, and blood samples were assessed for thiol concentration every 15 minutes using a colorimetric kit. The NAC doses tested were 140, 400, 1000, and 1200 mg/kg.
# [7] = N-acetylcysteine dose escalation, IV at time 0, 4 and 8 hours, followed for two weeks
# Experimental: Rats were given NAC IV at time 0, 4 hours, and 8 hours and were then followed for two weeks.
# [8] = cisplatin 10 mg/kg IP + NAC 400 mg/kg IP
# [9] = cisplatin 10 mg/kg IP + NAC 400 mg/kg PO
structure (smiles),measurement,setting,value
"CC(=O)N[C@@H](CS)C(=O)O [NAC, N-acetylcysteine]",protection against nephrotoxicity,[1]; NAC 800 mg/kg IP 30 minutes before each cisplatin treatment,no protective effect
same,protection against nephrotoxicity,[1]; NAC 800 mg/kg IV 30 minutes before each cisplatin treatment,protective against the cumulative nephrotoxicity
same,radiolabel in brain,"[2]; NAC 140 mg/kg, IA right carotid artery",high levels of radiolabel in the right cerebral hemisphere
same,radiolabel in right cerebral hemisphere relative to IA without BBBD,"[2]; NAC 140 mg/kg, IA right carotid with osmotic BBBD",doubled
same,brain delivery of NAC,"[2]; NAC 140 mg/kg, aortic infusion",negligible levels
same,delivery to kidney,"[2]; NAC 140 mg/kg, aortic infusion",increased systemic delivery to kidney
same,amount of NAC found in the brain,"[2]; radiolabelled + unlabeled NAC 140 mg/kg, IV",negligible amounts
same,nephroprotection,cisplatin nephrotoxicity; NAC 50 mg/kg IA in the descending aorta,significant nephroprotection
same,nephroprotection,cisplatin nephrotoxicity; NAC 50 mg/kg IV,not nephroprotective
same,nephroprotection,cisplatin nephrotoxicity; NAC 400 mg/kg IV,nephroprotective
same,protection against cisplatin nephrotoxicity,"cisplatin nephrotoxicity; NAC 400 mg/kg PO via nasogastric tube, cisplatin 10 mg/m^2",not protective
same,time to renal failure,"cisplatin nephrotoxicity; NAC 400 mg/kg PO, cisplatin 10 mg/m^2",≤ 3 days
same,protection against cisplatin cytotoxicity,[3]; NAC 8 hours after cisplatin,minimal
same,effect on cytotoxic effects of cisplatin (apoptosis proteins),[3]; NAC added concurrent with cisplatin or up to 2 hours after,reversed the cytotoxic effects of cisplatin
same,protection against cisplatin cytotoxicity,[3]; NAC delayed more than 2 hours,protection was reduced
same,BUN,[4]; [8],131.8 ± 8.2 mg/dL
same,CR (creatinine),[4]; [8],2.3±0.38
same,BUN,"[4]; cisplatin 10 mg/kg IP + NAC 400 mg/kg IV, p<0.0001",26.33 ± 6.76 mg/dL
same,CR (creatinine),"[4]; cisplatin 10 mg/kg IP + NAC 400 mg/kg IV, p<0.0013",0.47±0.15
same,BUN,[4]; [9],123.3 ± 8.2 mg/dL
same,CR (creatinine),[4]; [9],1.77±0.21
same,percent weight loss over the test period versus the other groups,"[4]; cisplatin + IV NAC, p<0.0001",significantly lower percent weight loss
same,blood level of NAC (mean),[5]; IV 100 mg/kg,380 ± 160 µM
same,blood level of NAC (mean),[5]; IV 400 mg/kg,2190 ± 190 µM
same,blood level of NAC (mean),[5]; IV 1200 mg/kg,6220 ± 180 µM
same,serum concentration of metabolite oxidized NAC relative to NAC alone,"[5]; IV, 15 min after administration",approximately double
same,serum NAC level,"[5]; PO 1200 mg/kg, at 15 min or 60 min after infusion",0.12 ± 0.12 mM
same,half-life,[6],< 15 min
same,safety/tolerability,"[7]; rat, in vivo, iv, 1200 mg/kg",safe and well-tolerated
same,weight loss and signs of toxicity,"[7]; rat, in vivo, iv, 1200 mg/kg",no weight loss and no signs of toxicity
same,tolerability of infusions,"[7]; rat, in vivo, iv, 1500 mg/kg",tolerated the infusions well
same,loss of body weight,"[7]; rats, NAC IV 1500 mg/kg×3 (0, 4, 8 hours), within 2-3 days of infusion",5%-10%
